According to patent EP0412158A1, “ONCOSTATIC DRUG” (priority 1987, dated 1988):
“And” between values parts separate entries of the source, which are not always exact repeats. Equal values may be shown once. Read-outs that look alike come from different tables or passages of the source. Marks after values point to notes of the source that are not given here.

What was measured:
[1] = system: methyl cholanthrene A; assay: Methyl cholanthrene A tumor, evaluation by elongation of period of survival (Examples 31, 34 and 35); format: in vivo, female BALB/C mice; conditions: 100 mg/kg, ip × 9 (D1~D9)
Experimental: The active compounds, M to 0, mentioned above were severally dissolved in distilled water to obtain aqueous solutions containing the compounds in a fixed concentration of 10 mg/ml. To be specific, to female BALB/C mice (five weeks old) to which methyl cholanthrene A had been transplanted in a ratio of 1.0 x 10^5 cells per mouse, […] for 9 consecutive days to determine the mice's periods of survival. For comparison, mice to which no aqueous solution was administered and mice to which aminonitrosourea was administered were similarly tested.

[2] = system: human lung cancer (OAT); format: in vivo, female nude mice; conditions: 200 mg/kg ip ×10; for T/C: tumor volume
Experimental: A patch of human lung cancer [Cancer cells recommended by National Cancer Institute (NCL) of the U.S.A.] (OAT) measuring approximately 2 x 2 mm in area was subcutaneously transplanted to each of female nude mice. An aqueous solution containing the aforementioned heteropoly acid salt (Compound M) in a concentration of 10 mg/ml was administered by intraperitoneal injection (ip) to the mice at a dose of 200 mg/kg once per day for 10 consecutive days following the 12th day of transplantation. For 15 days following the stop of the administration, the volumes of tumor in the mice were measured to evaluate the effect of compound. At ip (x 10), significant suppression of hyperplasia began to appear about the 4th day. Even after completion of the administration 25th day of the transplantation, strong suppression of hyperplasia of cancer of about 50% was maintained. Generally by the NCI standard, a ratio of suppression exceeding 50% is rated as effective. Thus, the compound was confirmed to be effective. For comparison, mice to which no aqueous solution was administered were similarly tested.

[3] = system: human lung cancer (OAT); format: in vivo, female ICR/cd-1 mice
Experimental: A patch of human lung cancer [cancer cells recommended by National Cancer Institute (NCI) of the U.S.A.] (OAT) measuring approximately 1 x 1 mm in area was transplanted beneath the hepatic capsule of each of female ICR/cd-1 mice (18 to 20 g) five to six weeks old (SRC method).
Then, an aqueous solution of 1% by weight of the aforementioned compound M was administered by intraperitoneal injection (ip) at a dose of 100 mg/kg and a dose of 200 mg/kg to the mice once per day for 5 consecutive days. The body weights of the mice and the sizes of tumor in the mice were measured on the 7th day, i.e. after one days interval following the stop of the administration to evaluate the effect of compound.

[4] = system: human lung cancer (OAT); format: in vivo, female ICR/cd-1 mice; conditions: Example 39: 100 mg/kg (so in the source), IP 1~6
[5] = system: methyl cholanthrene A tumor; assay: Antineoplastic activity against transplanted methyl cholanthrene A tumor, evaluation by size of tumor (Examples 1 to 6); format: in vivo, female BALB/C mice; conditions: for Average weight of tumor / Number of tumorless mice /total number of mice / Change in body weight / T/control: ip×9; for Change in body weight: body weight 13 days after transplantation; for T/control: tumor weight
Experimental: By dissolving alkylammonium salt of polymolybdic acid [NH3C3H7(iso)]s [Mo7O24] • 3H2O (Compound A) and other compounds (Compounds B to D) severally in distilled water, aqueous solutions containing the compounds in a fixed concentration of 10 mg/ml were obtained. These aqueous solutions were administered to female BALB/C mice (five weeks old) to which methyl cholanthrene A tumor had been transplanted to test the compounds for antineoplastic activity. To be specific, methyl cholanthrene A was transplanted to the mice in a ratio of 1.0 x 10^5 cells per mouse and the aqueous solutions were continuously administered to the mice by intraperitoneal injection ([…]) for nine days. On elapse of 14 days following the start of the administration, the tumors in the mice were measured. For comparison, mice to which no antineoplastic .drug was administered and mice to which aminonitroso urea was administered were tested by following the procedure described above.

[6] = system: methyl cholanthrene A; assay: Methyl cholanthrene A tumor, evaluation by extension of period of survival (Examples 7 to 11); format: in vivo, female BALB/C mice; conditions: for Change in body weight: ip×9, D1~D9
Experimental: The aforementioned compounds, A to D, were severally dissolved in distilled water to obtain aqueous solutions containing the compounds in a fixed concentration of 10 mg/ml. To the female BALB/C mice (five weeks old) to which methyl cholanthrene A had been transplanted in a ratio of 1.0 x 10^5 cells per mouse, […] to determine the mices' periods of survival. For comparison, mice to which no antineoplastic drug was administered and mice to which aminonitroso urea was administered were similarly tested.

[7] = Test for acute toxicity; format: in vivo, BALB/C mice, nude mice; conditions: result in words

Substance: Nas [IMo6O24] • 34H2O [Compound M]
- Average number of days of survival ±SE [1]: 42.57±5.77(7) days
- ILS [1]: 61.3%
- suppression of hyperplasia of cancer ([2]; after completion of the administration, 25th day): about 50%
- Volume of tumor, Average value±SE ([2]; day 1): 457.6±59.3 mm3
- Volume of tumor, Average value±SE ([2]; day 2): 501.7±32.9 mm3
- T/C ([2]; day 2): 65.2* %
- Volume of tumor, Average value±SE ([2]; day 3): 617.0±165.7 mm3
- T/C ([2]; day 3): 58.3%
- Volume of tumor, Average value±SE ([2]; day 4): 610.0±118.1 mm3
- T/C ([2]; day 4): 40.9** %
- Volume of tumor, Average value±SE ([2]; day 5): 711.2±109.2 mm3
- T/C ([2]; day 5): 40.8** %
- Volume of tumor, Average value±SE ([2]; day 6): 1003.6±188.6 mm3
- T/C ([2]; day 6): 39.9** %
- Volume of tumor, Average value±SE ([2]; day 7): 1033.6±121.5 mm3
- T/C ([2]; day 7): 26.0** %
- Volume of tumor, Average value±SE ([2]; day 8): 1257.8±166.2 mm3
- T/C ([2]; day 8): 27.7** %
- Volume of tumor, Average value±SE ([2]; day 12): 2366.6±364.0 mm3
- T/C ([2]; day 12): 41.6** %
- Volume of tumor, Average value±SE ([2]; day 15): 4493.2±562.2 mm3
- T/C ([2]; day 15): 48.0** %
- Volume of tumor, Average value±SE ([2]; day 19): 5735.0±1038.1 mm3
- T/C ([2]; day 19): 43.3** %
- Volume of tumor, Average value±SE ([2]; day 22): 8493.2±1352.2 mm3
- T/C ([2]; day 22): 54.8** %
- Volume of tumor, Average value±SE ([2]; day 25): 9672.6±1638.0 mm3
- T/C ([2]; day 25): 53.2** %
- T/C ([3]; 100 mg/kg, IP 1~6 (except for 4)): 77.4%
- Tumorous activity T7/T0 ([3]; 100 mg/kg, IP 1~6 (except for 4), group mean): 2.00±0.20
- Tumorous activity T7/T0 ([3]; 100 mg/kg, IP 1~6 (except for 4), individual mice): 2.25 and 1.60 and 2.15
- Tumorous activity T7 ([3]; 100 mg/kg, IP 1~6 (except for 4), size of tumor on 7th day, individual mice): 22.5 omu and 16.0 omu and 21,5 omu
- antineoplastic activity ([3]; result in words): strong antineoplastic activity
- T/C [4]: 60.0%
- Tumorous activity T7/T0 ([4]; group mean): 1.56±0.24
- Tumorous activity T7/T0 ([4]; individual mice, 100 mg/kg): 1.25 and 1.40 and 2.05
- Tumorous activity T7 ([4]; size of tumor on 7th day, individual mice, 100 mg/kg): 12.5 omu and 14.0 omu and 20.5 omu

Substance: [NH3C3H7(iso)]s (Mo7O24] • 3H2O [Compound A]
- toxicity ([5]; 200 mg/kg.ip for nine days, judged by increase of body weight, result in words): very low toxicity
- Average weight of tumor ([5]; No. 1, 100 mg/kg): 451.0 ± 84.7 mg
- Number of tumorless mice /total number of mice ([5]; No. 1, 100 mg/kg): 1/8
- Change in body weight ([5]; No. 1, 100 mg/kg): +2.50 (D1~D9) g
- T/control ([5]; No. 1, 100 mg/kg): 0.169
- Average weight of tumor ([5]; No. 2, 50 mg/kg): 1182.1±246.8(10) mg
- Number of tumorless mice /total number of mice ([5]; No. 2, 50 mg/kg): 0/10
- Change in body weight ([5]; No. 2, 50 mg/kg): +1.81 g
- T/control ([5]; No. 2, 50 mg/kg): 0.414
- Average weight of tumor ([5]; No. 2, 100 mg/kg): 563.9±99.1(9) mg
- Number of tumorless mice /total number of mice ([5]; No. 2, 100 mg/kg): 0/10
- Change in body weight ([5]; No. 2, 100 mg/kg): +1.97 g
- T/control ([5]; No. 2, 100 mg/kg): 0.198
- Average weight of tumor ([5]; No. 2, 200 mg/kg): 1211.8±227.6(8) mg
- Number of tumorless mice /total number of mice ([5]; No. 2, 200 mg/kg): 0/8
- Change in body weight ([5]; No. 2, 200 mg/kg): +1.81 g
- T/control ([5]; No. 2, 200 mg/kg): 0.424
- Average weight of tumor ([5]; No. 3, 50 mg/kg): 1606.0±163.5(8) mg
- Number of tumorless mice /total number of mice ([5]; No. 3, 50 mg/kg): 0/8
- Change in body weight ([5]; No. 3, 50 mg/kg): +1.68 g
- T/control ([5]; No. 3, 50 mg/kg): 0.624
- Average number of days of survival ([6]; No. 1, 100 mg/kg, ip×9): 42.3 ± 3.0 days
- Number of toxically killed mice/total number of mice ([6]; No. 1, 100 mg/kg, ip×9): 0/8
- Change in body weight ([6]; No. 1, 100 mg/kg): +2.50 g
- T/control ([6]; No. 1, 100 mg/kg, ip×9, days of survival): 163.1
- Average number of days of survival ([6]; No. 2, 50 mg/kg, ip×9): 31.8±2.2(8) days
- Number of toxically killed mice/total number of mice ([6]; No. 2, 50 mg/kg, ip×9): 0/8
- Change in body weight ([6]; No. 2, 50 mg/kg): +1.68 g
- T/control ([6]; No. 2, 50 mg/kg, ip×9, days of survival): 131.8
- T/control ([6]; period of survival): 63.1%
- acute toxicity ([7]; BALB/C mice, dose of 3,600 mg/kg): no toxicity
- acute toxicity ([7]; nude mice, dose of 2,000 mg/kg ip): no toxicity
